{"source": "patent US12344599B2", "about": "“Prodigiosin analogs and methods of use” (Institute For Cancer Research, priority 2016, dated 2025)", "key": {"H1975": {"tested_on": "H1975", "assay": "CellTiterGlo cell viability assay, H1975", "assay_type": "cell-based", "settings": "Homo sapiens, NCI-H1975; H1975, NSCLC, p53 R273H, 72 hours", "experimental": "• 1) Cell lines: HT29, SW480, DLD-1, HCT116, and p53-null HCT116 cells, H1975, MDA-MD-231, U251, FaDu, CAL-27, PANC-1, Aspc-1, and MRC5 were obtained from the ATCC and cultured as recommended. Cells were regularly authenticated by bioluminescence, growth, and morphologic observation. The cells were routinely examined for Mycoplasma and all cell lines underwent STR authentication. • 2) Western blotting: After treatment, protein lysates were collected for Western blot analysis. 15 μg of protein was used for SDS-PAGE. After primary and secondary antibody incubations, the signal was detected by chemiluminescent detection kit, imaged by Syngene (Imgen Technologies). […] The cell viability was assessed by CellTiterGlo bioluminescent cell proliferation assay (Promega), following the manufacturer's protocol. Bioluminescence imaging was measured using the IVIS imager. Percentage of cell viability (mean±SEM) at each dose was calculated against the respective DMSO control. The IC50 values were determined from the sigmoidal dose-response curves using GraphPad Prims4. • 4) Caspase activity assay: Cells were seeded in 96-well plate (1×10^4 cells/well). […] The caspase 3/7 activity was assessed by Caspase-Glo® 3/7 Assay kit (Promega), following the manufacturer's protocol. Bioluminescence imaging was measured using the IVIS imager. […]"}, "p53-target genes": {"tested_on": "p53-target genes", "assay": "Western blotting of p53-target genes (Example 1)", "assay_type": "cell-based, human", "experimental": "After treatment, protein lysates were collected for Western blot analysis. Twenty-five micrograms of protein were used for SDS-PAGE. After primary and secondary antibody incubations, the signal was detected with a chemiluminescent detection kit, followed by autoradiography or Syngen. […] In FIG. 10, p53-null HCT116 cells were treated with P01 and P306, alone or in combination with SiCon or SiTAp73, in various concentrations for 6 hours, and tested for p73 (C.S.), p73 (Bethyl), P63-α, p53, DR5, Puma, P21, and Ran proteins."}, "[1]": {"tested_on": "p53 target genes in HT29 cells", "assay": "RNA-Seq gene profiling with IPA analysis", "assay_type": "cell-based, human", "settings": "HT29, 1 μM for 24 hours", "experimental": "Having confirmed that PG3-Oc induces apoptosis in multiple p53-expressing mutant cancer cell lines, whether this small molecule restored p53 pathway signaling was investigated in HT29 cells after treatment with 1 μM PG3-Oc for 24 hours. For this purpose, gene profiling was performed by RNA-Seq and bioinformatics analysis, such as IPA (Ingenuity pathway analysis), GSEA (gene set enrichment analysis) and GO (gene ontology) (See details at Methods and Materials). […] Key p53 target gene CDKN1A (p21) that negatively regulate cell cycle and other p53 target genes that regulate apoptosis such as, TNFRSF10B (DR5), BBC3 (PUMA), BIRC5 (Survivin), TP53INP1 (Teap) were identified in canonical p53 pathway analysis. […] To verify that the behavior of regulation of p53 target genes by PG3-Oc is similar to p53 protein, based on published data (Fischer, Oncogene, 2017, 36(28), 3943-3956), genes directly repressed (FIG. 89) and activated (FIG. 90) by the p53 transcription factor were selected. […] This implicates that PG3-Oc is able to restore the p53 pathway."}, "HT29 tumor xenografts": {"tested_on": "HT29 tumor xenografts", "assay_type": "in vivo, mouse", "experimental": "One million HT29 were implanted subcutaneously in the flanks in each athymic nude mouse (female, 4-6 weeks old). The mice were divided at random into two groups and treated with the vehicle (10% DMSO, 20% Kollipher EL in PBS) and PG3-Oc (5 mg/kg, 3 times/week) by intraperitoneal injection when the tumor masses reached a size of 5 to 6 mm. Subsequently, tumor volumes were measured with a caliper and calculated using V=0.5×Length×Width^2. Twenty three days after treatment, the mice were euthanized and tumors were excised. H & E staining and Immunohistochemistry (IHC) of paraffin-embedded tumor and tissue sections were performed at the Fox Chase Cancer Center Histopathology Facility.\nTo evaluate the antitumor effects of PG3-Oc in vivo, a human tumor xenograft model was established by subcutaneous injection of human colon cancer cells into nude mice. After the tumor volume reached approximately 50 mm^3, mice were treated by i.p. injection with vehicle or PG3-Oc at 5 mg/kg 3 times weekly for 2 weeks."}, "[2]": {"settings": "nude mice, 5 mg/kg i.p. 3 times weekly"}}}
{"smiles": "CCCCCCCCOC(=O)CCc1c(C)[nH]c(/C=C2\\N=C(c3ccc[nH]3)C=C2OC)c1C", "note": "[PG3-Oc, Octyl (Z)-3-(5-((4′-methoxy-1H,5′H-[2,2′-bipyrrol]-5′-ylidene)methyl)-2,4-dimethyl-1H-pyrrol-3-yl)propanoate]", "values": [{"measurement": "IC50", "setting": "H1975", "value": 190, "unit": "nM"}, {"measurement": "expression of p53-target genes", "setting": "p53-target genes", "value": "induced mutant p53 and ΔNp73 degradation and the expression of p53-target genes"}, {"measurement": "PMAIP1 (Noxa) increase as compared to control", "setting": "[1]", "value": 1.9, "unit": "fold"}, {"measurement": "body weight versus vehicle treatment group", "setting": "HT29 tumor xenografts; mouse, in vivo, ip, 5 mg/kg", "value": "No significant difference"}, {"measurement": "Ki-67 expression in tumors as compared with the vehicle group", "setting": "HT29 tumor xenografts; [2]", "value": "significantly decreased"}, {"measurement": "PUMA in tumors as compared with controls", "setting": "HT29 tumor xenografts; [2]", "value": "significantly induced"}, {"measurement": "tumor volume as compared with vehicle-treated mice", "setting": "HT29 tumor xenografts; [2]", "value": "significantly reduced"}]}
